Source: patent publication US20130096370A1, “COMPOSITIONS AND SYSTEMS FOR THE REGULATION OF GENES” (priority 2002, published 2013)

Test system: p53 in MCF-7 breast cancer cells
Assay: Down modulation of endogenous p53 in MCF-7 cells by dox-inducible siRNA lentivectors (Western blot)
Format: cell-based
Conditions: dually transduced MCF-7 cells, 5 days in dox, FIG. 7B
Procedure: To analyze the regulation of GFP a Hela cell clone carrying a single copy of the WPXLGFP provirus (Hela-GFP) was used. For transduction, Hela-GFP, MCF-7 or Hela cells were plated on 24-well plate (20×10^4 cells/well) and after 16 hrs medium containing recombinant lentivectors was added. Following 16 hrs of incubation the cells were washed, split and doxycycline was added to half of the transduced cells at a final concentration of 5 μg/ml. Five days later the cells were harvested and analyzed by FACS.
Cell extracts were prepared in RIPA lysis buffer (25 mM Tris pH 7.5, 1% Triton X-100, 0.5% sodium deoxycholate, 5 mM EDTA, 150 mM NaCl) containing a cocktail of protease inhibitors (Sigma). The protein samples (10 μg) were separated on 4-20% gradient PAGE-SDS gel, electroblotted to polyvinylidene fluoride membranes (Perkin Elmer) and exposed to antibodies against p53 (Santa Cruz Biotechnology), Lamin A/C (Santa Cruz Biotechnology), GFP (Clontech) and actin (Calbiochem). Antibodies conjugated with horseradish peroxidase (Amersham) and enhanced chemiluminescence (ECL; Amersham) was used for detection.

`C[C@H]1c2cccc(O)c2C(=O)C2=C(O)[C@]3(O)C(=O)C(C(N)=O)=C(O)[C@@H](N(C)C)[C@@H]3[C@@H](O)[C@@H]21` [doxycycline] was tested, and the “dox concentration at which full-blown p53 suppression was achieved” value was 0.25 µg/mL and the “dox concentration at which p53 downregulation was already apparent” value was 0.004 µg/mL.
